Assays:
[1] = biological target: T1, Recombinant human FEN1 protein (Homo sapiens, UniProt P39748); experiment: fluorescence-based HTS assay for FEN1 inhibitors; format: biochemical; conditions: dilution series on each screening plate
T1 construct: made in house
Protocol: reactions containing 50 mM Tris pH 8.0, 10 mM MgCl2, 1 mM DTT and 0.01% Tween-20.
Reactions were incubated at 37 °C for 10 min. To inactivate the enzyme, an equal volume of
stop buffer (90% Formamide, 20 mM EDTA) was added and the mixture was heated at 95 °C
for 10 min. Following separation on a 15% polyacrylamide-urea denaturing gel, substrate
and product bands were visualized by a Typhoon Trio+ Variable Model Imager (Amersham
Bioscience/GE Healthcare, Piscataway, NJ), and the signals were quantified using
ImageQuant software (Molecular Dynamics, GE Healthcare).
Development of HTS assay to isolate novel FEN1 inhibitors: To facilitate the search for
novel FEN1 inhibitors, we have developed a fluorogenic donor/quencher reporter pair to
monitor generation of reaction product in real time (28) (Supplementary Figure S4A ).
Recombinant human FEN1 protein was purified from bacteria as described previously (27).
All oligodeoxynucleotides were purchased from Biosearch Technologies, Inc., (Novato, CA,
USA). The double-stranded DNA substrate containing a double flap region used in the […]
BHQ-2 quencher (which absorbs 6-TAMRA fluorescence when in close proximity) is lost,
and FEN1 activity is measured indirectly as an increase in fluorescence signal (Figure 3).
Kinetic fluorescence data were collected on ViewLux high-throughput CCD imager (Perkin […]
by absence of fluorescence. […]

PEO1 cells = experiment: γH2AX analysis, PEO1; format: cell-based, human; conditions: FEN1i monotherapy
Protocol: Graphical representation and statistical analysis of mean tail moment was performed in GraphPad Prism 6 (GraphPad, La Jolla, USA). All experiments were done in duplicate three times.
γH2AX FACS: For monitoring DNA double strand break accumulation by γH2AX FACS, 1.05×104 Cells/cm2 were seeded in 6-well plates and left overnight at 37°C in a 5% CO 2 atmosphere. Cisplatin (5µM) or FEN1i (10µM) was later added to cells and incubated for 24h and 48h at 37°C in a 5% CO2 atmosphere. Cells were collected by trypsinization, washed […]
(§1) with ice cold PBS and fixed in 70% ethanol for 1h at -20°C. After removal of the fixative solution by centrifugation, cells were stained with 2 µg/ml of phospho-Histone (γH2AX) Ser139 (16202A, Millipore, UK) to detect DSBs.
(§2) Cell cycle progression: Cells were treated with 20 µg/ml RNase A (12091021, Invitrogen) and then 10 µg/ml Propidium Iodide (P4170, Sigma Aldrich) was added to determine the cell cycle distribution. The samples were analysed on a Beckman-Coulter FC500 flow cytometer using a 488nm laser for excitation and emission data for PI collected using a 620nm bandpass filter (FL3) and a 525nm bandpass filter (FL1) for FITC-anti-phospho-Histone H2A.X. […]
Graphical representation and statistical analysis was performed in GraphPad Prism 7 (GraphPad, La Jolla, USA). […]

[2] = system: XRCC1 deficient A2780cis cells; experiment: FEN1 inhibitor cytotoxicity, XRCC1 deficient A2780cis; format: cell-based, human; conditions: vs A2780cis control
PEO4 cells = experiment: Cell cycle progression, PEO4; format: cell-based, human; conditions: FEN1i plus cisplatin
Protocol: as §1, §2
Graphical representation and statistical analysis was performed in GraphPad Prism 7 (GraphPad, La Jolla, USA).
3D Spheroid assays: A2780_control and A2780 FEN1_ KO as well as A2780cis_control and A2780cis FEN1_ KO cells were seeded at 4500 cells/cm2 density in ultra-low attachment 6-well plates (174932, Thermo Fisher Scientific) and cultured in 3D Tumorsphere Medium (C28070, PromoCell, UK) at 37°C in a 5% CO2 atmosphere. Cells were keep in culture for 7-10 days, toping up with fresh medium every two days until spheroids structures were formed.

FEN1 = system: FEN1; design: method as in PMID 21062821; conditions: read-out: IC50 for FEN1 inhibition; cited from earlier work
A2780 cells = experiment: Clonogenic assay, A2780; format: cell-based, human
Protocol: Clonogenic assay: In the clonogenic assay (colony formation assays), 32 cells/cm2 were seeded in 6-well plates and left at 37°C in a 5% CO2 atmosphere. Cisplatin (5µM) and/or FEN1i (10µM) and/or Importazole (5 µM, Selleckem, S8446 ) were added at the indicated concentrations and the plates were left at 37 °C in a 5% CO 2 atmosphere for 14 days. Later, the plates were washed with PBS, fixed and stained with a crystal violet, acetic acid and methanol solution and colonies were counted. […]

T1 sequence (P39748 whole entry): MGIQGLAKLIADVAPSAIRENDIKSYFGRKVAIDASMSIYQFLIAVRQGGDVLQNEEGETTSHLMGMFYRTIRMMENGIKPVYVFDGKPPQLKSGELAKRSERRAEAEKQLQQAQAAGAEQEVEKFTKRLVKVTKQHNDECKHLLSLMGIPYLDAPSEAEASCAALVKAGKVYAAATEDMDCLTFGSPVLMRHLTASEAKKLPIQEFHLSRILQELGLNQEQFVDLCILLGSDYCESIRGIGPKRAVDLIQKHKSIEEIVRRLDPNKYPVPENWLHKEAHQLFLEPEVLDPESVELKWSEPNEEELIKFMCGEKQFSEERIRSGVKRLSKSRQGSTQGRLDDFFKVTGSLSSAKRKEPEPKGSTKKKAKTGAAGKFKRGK

**Q.** For `Cc1csc2c1c(=O)n(O)c(=O)n2-c1ccccc1` [PTPD, 3-hydroxy-5-methyl-1-phenylthieno [2,3 d]pyrimidine-2,4(1H,3H)-dione], which “inhibition pattern of control dilution series in the screen” value [1] is on record?
**A.** uniform inhibition pattern

**Q.** And the γH2AX foci (PEO1 cells)?
**A.** increased γH2AX foci accumulation

**Q.** And the “sensitivity to FEN1 inhibitor” value [2]?
**A.** did not observe any increased sensitivity

**Q.** What about the cell cycle effect (PEO4 cells) of the same compound?
**A.** G2/M cell cycle arrest

**Q.** And the IC50 (FEN1)?
**A.** 22 nM

**Q.** Which cisplatin sensitivity (A2780 cells) does the source give for `N.N.[Cl][Pt][Cl]` [cisplatin] here?
**A.** cisplatin-sensitive

From PMC8070745, “FEN1 Blockade for Platinum Chemo-Sensitization and Synthetic Lethality in Epithelial Ovarian Cancers” (Cancers, 2021)
